From publication PMC6843832, “Synthesis of Novel Analogs of Thieno[2,3-d] Pyrimidin-4(3H)-ones as Selective Inhibitors of Cancer Cell Growth” (Biomolecules, 2019)
Like-named read-outs stand apart in the source and are kept apart here.

What was measured:
PC-3 cells = assay: MTT assay, PC-3 cells; assay type: cell-based; details: human prostate cancer cells, 72 h, read-out: Cytotoxic activity (IC50) PC-3
Description: (§1) Primary human liver HL-7702 cells were purchased from SIBS (Shanghai Institutes for Biological Sciences, Shanghai, China) while MCF-7, A549, PC-9 and PC-3 cells were from ATCC (American Type Culture Collection, Rockville, MD, USA). HL-7702, PC-9 and A549 cells were incubated with Roswell Park Memorial Institute (RPMI) 1640 medium and MCF-7 were cultured in Dulbecco’s Modified Eagle’s Medium (DMEM) supplemented with 10% heat-inactivated fetal bovine serum (FBS) and 1% antibiotics (penicillin and streptomycin). PC-3, a human prostate adenocarcinoma cell, was maintained in Ham’s F-12 Medium supplemented with 10% FBS, 1% penicillin/streptomycin and 1% glutamine. All cells were cultured at 37 °C in an incubator containing 5% CO2. The cell viability was determined by using the MTT (methyl thiazolyl tetrazolium bromide) assay. Briefly, cells were seeded in 96-well plates (4 × 10^3 cells/well) overnight and exposed to the synthesized compounds with various concentrations. Camptothecin and dimethyl sulfoxide (DMSO) served as a positive control and a negative control respectively. After 72 h of incubation, 20 μL of MTT (5 mg/mL in phosphate buffer saline (PBS)) were added into each well. Dissolved yellowish MTT is converted to an insoluble purple formazan during incubation (4 h). In order to dissolve the formazan crystals, 100 μL of lysis solution (10% SDS (sodium dodecyl sulfate)-5% isobutyl alcohol-0.01M HCl) was added into per well. Finally, the optical density (OD) of solution in the plates was measured using a microplate reader at 570 nm after dissolving overnight. Cell viability was calculated by using the following formula: […].

MCF-7 cells = assay: MTT assay, MCF-7 cells; assay type: cell-based; details: MCF7, human breast cancer cells, 72 h, read-out: Cytotoxic activity (IC50) MCF-7
Description: as §1

PC-9 cells = assay: MTT assay, PC-9 cells; assay type: cell-based; details: human non-small cell lung cancer cells, 72 h, read-out: Cytotoxic activity (IC50) PC-9
Description: as §1

A549 cells = assay: MTT assay, A549 cells; assay type: cell-based; details: human non-small cell lung cancer cells, read-out: Cytotoxic activity (IC50) A549
Description: as §1

MTT assay, HL-7702 cells = assay type: cell-based, human; details: HL-7702 cells (normal liver cells); normal human liver cells, MTT, 72 h; read-out: Cytotoxic activity (IC50) HL-7702
Description: as §1

Row | Compound | IC50 (PC-3 cells) [µM] | IC50 (MCF-7 cells) [µM] | IC50 (PC-9 cells) [µM] | IC50 (A549 cells; Homo sapiens, A549, 72 h) [µM] | IC50 at 72 h (MTT assay, HL-7702 cells) [µM] | melting point [°C] | IC50 (A549 cells; 72 h) [µM]
1 | CC[C@@]1(O)C(=O)OCc2c1cc1n(c2=O)Cc2cc3ccccc3nc2-1 [CAMPTOTHECIN, camptothecin, reference compound] | 0.85 ± 0.01 | 0.26 ± 0.05 | 0.09 ± 0.01 | 0.1 ± 0.02 | 0.11 ± 0.03 |  | 
2 | O=c1c2c3c(sc2nc(-c2ccc(Cl)cc2)n1Cc1ccccc1)CCCC3 [Compound 1] | > 100 | > 100 | > 100 | > 100 | > 100 |  | 
3 | O=c1c2c3c(sc2nc(-c2ccccc2)n1Cc1ccccc1)CCCC3 [Compound 2] | > 100 | > 100 | > 100 | > 100 | > 100 |  | 
4 | Cc1ccc(-c2nc3sc4c(c3c(=O)n2Cc2ccccc2)CCCC4)o1 [Compound 3] | 92.9 ± 2.29 | > 100 | 86.1 ± 1.28 | 54.4 ± 1.83 | 55.17 ± 0.5 |  | 
5 | O=c1c2c3c(sc2nc(-c2ccc(C(F)(F)F)c(C(F)(F)F)c2)n1Cc1ccccc1)CCCC3 [Compound 4] | > 100 | 24.7 ± 2.04 | > 100 | 58.2 ± 0.65 | > 100 | 161 to 163 | 
6 | O=c1c2c3c(sc2nc(-c2cccs2)n1Cc1ccccc1)CCCC3 [Compound 5] | > 100 | 97.5 ± 0.13 | 81 ± 3.94 | > 100 | > 100 | 185 to 187 | 
7 | Cc1cc(-c2nc3sc4c(c3c(=O)n2Cc2ccccc2)CCCC4)sc1C [Compound 6] | > 100 | 59.86 ± 0.34 | > 100 | 17.4 ± 0.88 | > 100 |  | 
8 | O=c1c2c3c(sc2nc(-c2ccc(F)cc2)n1CCc1ccc(O)cc1)CCCC3 [Compound 7] | > 100 | 10.4 ± 1.32 | 44.8 ± 4.47 | < 10 | > 100 |  | 6.86 ± 0.98
9 | Cc1cc(-c2nc3sc4c(c3c(=O)n2CCc2ccc(O)cc2)CCCC4)sc1C [Compound 8] | 87.75 ± 0.63 | > 100 | 92.97 ± 0.52 | 50.92 ± 0.07 | > 100 |  | 
10 | O=c1c2c3c(sc2nc(-c2cccc(Cl)c2)n1CCc1ccc(O)cc1)CCCC3 [Compound 9] | > 100 | 30.7 ± 0.29 | > 100 | 19.6 ± 0.33 | > 100 | 238 to 240 | 
11 | Cc1ccc(-c2nc3sc4c(c3c(=O)n2CCc2ccc(O)cc2)CCCC4)cc1 [Compound 10] | 43.4 ± 2.73 | 27.47 ± 0.02 | 49.7 ± 2.27 | < 10 | > 100 |  | 8.51 ± 0.16
12 | O=c1c2c3c(sc2nc(-c2ccco2)n1Cc1ccccc1)CCCCC3 [Compound 11] | > 100 | 65.63 ± 0.26 | > 100 | 51.42 ± 0.46 | > 100 | 192 to 194 | 
